Source: PubChem BioAssay (NCI)
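Values below derive from 48-hour exposures of cells grown in 96-well plates, with endpoints linearly interpolated between the two concentrations bracketing the appropriate inhibition level. TGI marks complete inhibition of growth.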

How the values were obtained:
Experiment in all cases: NCI tumour cell line growth inhibition, 48 h
TK-10 renal = system: TK-10 renal
SW-620 colon = system: SW-620 colon
MALME-3M melanoma = system: MALME-3M melanoma
HOP-62 NSCLC = system: HOP-62 NSCLC
OVCAR-5 ovarian = system: OVCAR-5 ovarian
SF-295 CNS = system: SF-295 CNS
HL-60(TB) leukemia = system: HL-60(TB) leukemia
RPMI-8226 leukemia = system: RPMI-8226 leukemia
OVCAR-4 ovarian = system: OVCAR-4 ovarian
SF-268 CNS = system: SF-268 CNS
K-562 leukemia = system: K-562 leukemia
MOLT-4 leukemia = system: MOLT-4 leukemia
PC-3 prostate = system: PC-3 prostate
MDA-N = system: MDA-N
UACC-62 melanoma = system: UACC-62 melanoma
M14 melanoma = system: M14 melanoma
NCI-H226 lung = system: NCI-H226 lung
EKVX NSCLC = system: EKVX NSCLC
HCC-2998 colon = system: HCC-2998 colon

Compound `Cc1ccc(S(=O)(=O)NC(=O)NCC(=O)O)cc1` has a TGI (TK-10 renal) of over 100 µM, a TGI (SW-620 colon) of over 100 µM and a TGI (MALME-3M melanoma) of over 100 µM. It also gave a TGI (HOP-62 NSCLC) of over 100 µM, a TGI (OVCAR-5 ovarian) of over 100 µM and a TGI (SF-295 CNS) of over 100 µM. The TGI (HL-60(TB) leukemia) was over 100 µM, the TGI (RPMI-8226 leukemia) was over 100 µM and the TGI (OVCAR-4 ovarian) was over 100 µM. For the same compound, the TGI (SF-268 CNS) was over 100 µM, the TGI (K-562 leukemia) was over 100 µM and the TGI (MOLT-4 leukemia) was over 100 µM. For the same compound, the TGI (PC-3 prostate) was over 100 µM, the TGI (MDA-N) was over 100 µM and the TGI (UACC-62 melanoma) was over 100 µM. It also gave a TGI (M14 melanoma) of over 100 µM.

`CCCC(=O)Oc1cc(OC(=O)CCC)c2c(C)cc(=O)oc2c1` was tested, and the TGI (TK-10 renal) was over 100 µM, the TGI (SW-620 colon) was over 100 µM and the TGI (MALME-3M melanoma) was over 100 µM. For the same compound, the TGI (HOP-62 NSCLC) was over 100 µM, the TGI (OVCAR-5 ovarian) was over 100 µM and the TGI (SF-295 CNS) was over 100 µM. The TGI (RPMI-8226 leukemia) was over 100 µM, the TGI (NCI-H226 lung) was over 100 µM and the TGI (EKVX NSCLC) was over 100 µM. The TGI (OVCAR-4 ovarian) was over 100 µM, the TGI (SF-268 CNS) was over 100 µM and the TGI (K-562 leukemia) was over 100 µM. The TGI (MOLT-4 leukemia) was over 100 µM, the TGI (PC-3 prostate) was over 100 µM and the TGI (MDA-N) was over 100 µM. It also gave a TGI (UACC-62 melanoma) of over 100 µM and a TGI (M14 melanoma) of over 100 µM.

For `O=C1Cc2c([nH]c3cc(Br)ccc23)-c2ccccc2N1`, the TGI (TK-10 renal) was 87.3 µM, the TGI (SW-620 colon) was 52.5 µM and the TGI (MALME-3M melanoma) was 48.1 µM. It also gave a TGI (HOP-62 NSCLC) of 26 µM, a TGI (OVCAR-5 ovarian) of 52.7 µM and a TGI (SF-295 CNS) of 61.3 µM. For the same compound, the TGI (HL-60(TB) leukemia) was over 100 µM, the TGI (NCI-H226 lung) was 34.7 µM and the TGI (OVCAR-4 ovarian) was 38.2 µM. It also gave a TGI (SF-268 CNS) of 89.9 µM, a TGI (K-562 leukemia) of over 100 µM and a TGI (MOLT-4 leukemia) of 40.9 µM. It also gave a TGI (PC-3 prostate) of 44.3 µM, a TGI (MDA-N) of over 100 µM and a TGI (UACC-62 melanoma) of 49.2 µM. It also gave a TGI (M14 melanoma) of 37.5 µM.

`CC(C)C(=O)CP(=O)(O)O` showed a TGI (TK-10 renal) of over 100 µM, a TGI (SW-620 colon) of over 100 µM and a TGI (MALME-3M melanoma) of over 100 µM. The TGI (HOP-62 NSCLC) was over 100 µM, the TGI (OVCAR-5 ovarian) was over 100 µM and the TGI (SF-295 CNS) was over 100 µM. For the same compound, the TGI (HL-60(TB) leukemia) was over 100 µM, the TGI (RPMI-8226 leukemia) was over 100 µM and the TGI (NCI-H226 lung) was over 100 µM. The TGI (EKVX NSCLC) was 46.1 µM, the TGI (OVCAR-4 ovarian) was over 100 µM and the TGI (SF-268 CNS) was over 100 µM. It also gave a TGI (K-562 leukemia) of over 100 µM, a TGI (MOLT-4 leukemia) of over 100 µM and a TGI (PC-3 prostate) of over 100 µM. For the same compound, the TGI (MDA-N) was over 100 µM, the TGI (UACC-62 melanoma) was over 100 µM and the TGI (M14 melanoma) was over 100 µM.

`COC1=CC(=O)C2C(C1=O)[C@@H]1c3ccccc3OC[C@H]21` (stereo not given in full) showed a TGI (TK-10 renal) of over 100 µM, a TGI (SW-620 colon) of over 100 µM and a TGI (MALME-3M melanoma) of over 100 µM. It also gave a TGI (HOP-62 NSCLC) of over 100 µM, a TGI (OVCAR-5 ovarian) of over 100 µM and a TGI (SF-295 CNS) of over 100 µM. It also gave a TGI (HL-60(TB) leukemia) of over 100 µM, a TGI (RPMI-8226 leukemia) of over 100 µM and a TGI (HCC-2998 colon) of over 100 µM. For the same compound, the TGI (NCI-H226 lung) was over 100 µM, the TGI (EKVX NSCLC) was over 100 µM and the TGI (OVCAR-4 ovarian) was over 100 µM. The TGI (SF-268 CNS) was over 100 µM, the TGI (K-562 leukemia) was over 100 µM and the TGI (MOLT-4 leukemia) was over 100 µM. The TGI (M14 melanoma) was over 100 µM.

`CC(C)(C)OC(=O)CC(NC(=O)OC(C)(C)C)C(=O)Oc1ccc([N+](=O)[O-])cc1` (stereo not given) gave a TGI (TK-10 renal) of over 100 µM, a TGI (SW-620 colon) of over 100 µM and a TGI (MALME-3M melanoma) of over 100 µM. For the same compound, the TGI (HOP-62 NSCLC) was over 100 µM, the TGI (OVCAR-5 ovarian) was over 100 µM and the TGI (SF-295 CNS) was over 100 µM. It also gave a TGI (RPMI-8226 leukemia) of over 100 µM, a TGI (NCI-H226 lung) of over 100 µM and a TGI (EKVX NSCLC) of over 100 µM. It also gave a TGI (OVCAR-4 ovarian) of over 100 µM, a TGI (SF-268 CNS) of over 100 µM and a TGI (K-562 leukemia) of over 100 µM. The TGI (MOLT-4 leukemia) was over 100 µM, the TGI (PC-3 prostate) was over 100 µM and the TGI (MDA-N) was over 100 µM. It also gave a TGI (UACC-62 melanoma) of 65.9 µM and a TGI (M14 melanoma) of over 100 µM.
